In brackets after ≈: the same amount, converted by molar mass. Where two headings read alike, the source gives them in different places.
Columns and labels:
Format in all cases: physicochemical
[1] = Dynamic vapor sorption (DVS) analysis / hygroscopicity (EP 7.0 classification); settings: for Hygroscopically (DVS): DVS hygroscopicity class; for XRPD after DVS: resulting form after DVS; for hygroscopicity classification according to the European Pharmacopoeia (EP, version 7.0) / mass increase by dynamic vapor sorption analysis (hygroscopicity): 80% RH and 25° C.; for mass increase by dynamic vapor sorption analysis (hygroscopicity): first sorption cycle, relative to 40% RH; for Change In Mass (%) Desorption / Change In Mass (%) Hysteresis / Change In Mass (%) Sorption: DVS, 25° C.; for stability / XRPD pattern after DVS analysis: compared with untreated sample
Protocol: The hygroscopicity value is directly obtained from the sorption row at 80% RH, cycle 1.
Hygroscopicity of a sample of each of new form II and comparative form I was determined using the protocol provided below in conditions of 80% RH and 25° C.
The sample was subjected to DVS measuring using SMS-DVS intrinsic. The kinetic moisture sorption measurement was performed at 25° C. and in a RH % range described in the following: • From 40% RH to 90% RH • Form 90% RH to 0% RH • From 0% RH to 90% RH • From 90% RH to 0% RH
The sample was analyzed by XRPD after the analysis.
The hygroscopicity was calculated using the following equation: % Weight Change=[(W2−W1)/W1]*100 W1: weight of sample at the start of the experiment (25° C. and 40% RH) W2: weight of sample at 25° C. and 80% RH in the first absorption cycle

[2] = Storage stability of exposed powder at 25° C. and 60% RH for seven days, compared by XRPD; settings: for Stability test (25° C. 60% RH-7 d): resulting form; for modifications in XRPD pattern after storage (structural stability): 60% RH and 25° C. for 7 days, exposed powder
Protocol: Approximately 30 mg of exposed powder of comparative form 1 and new forms II and III, respectively, were stored at 25′C and 60% RH for seven days. Each powder was then analyzed by XRPD and its diffraction pattern was compared with that of untreated sample.

[3] = DSC - differential scanning calorimetry; settings: for DSC (onset) endo. solvent loss + melting: endothermic event: solvent loss + melting (Form 6: + Form 2 melting; Form 14: + Form 3 melting); for DSC (onset) endo. solvent loss: endothermic event: solvent loss
Protocol: The analysis was carried out using a DSC Q200 TA instruments equipped with a refrigerator cooling system (RCS40) and autosampler. The sample was weighed in an aluminum hermetic pan with pinhole. The analysis was performed heating the sample from 25° C. to 350° C. at 10° C./min.

[4] = TGA / TGA-EGA thermogravimetric analysis with evolved gas analysis; settings: for EGA: evolved solvent identified; for TGA overall weight loss: overall loss of the named solvent(s)
Protocol: The analysis was carried out using the Mettler Toledo TGA/DSC1. The sample was weighed in an aluminum pan hermetically sealed with an aluminum pierced cover. The analysis was performed heating the sample from 25° C. to 320° C. at 10° C./min. TGA-FTIR coupled with Thermo Nicoled is 10 spectometer. The analysis was carried out using the mettler toledo TGA/DSC1. The sample was weighed in an aluminum pan hermetically sealed with an aluminum pierced cover. The analysis was performed heating the sample from 25° C. to 320° C. at 10° C./min. The evolved gas is compared with ft-ir spectra database for identification.

[5] = Stability test (exposed sample 16 h), form by XRPD; settings: resulting form
[6] = Stability test (sealed vial 18 h), form by XRPD; settings: resulting form
[7] = Stability test (60° C. 75% RH-3 d), form by XRPD; settings: resulting form
XRPD after Grinding = settings: resulting form after grinding; listed as Form 8
[8] = Visual solubility in differing solvents (European Pharmacopeia 6.0 section 5.11); settings: for visual solubility in water: water at 75° C.; for solubility at 15 min: 25 °C, organic solvent or mixture, thermodynamic from solid
Protocol: Visual solubility of certain forms (compounds) in differing solvents was assessed according to the procedure described in the European Pharmacopeia 6.0 section 5.11. p. The compound was shaken vigorously for 1 min and placed in a constant temperature device for 15 min at 25.0±0.5° C. If the compound was not completely dissolved, the shaking was repeated for 1 min and the tube placed in a constant temperature device for 15 min. 50 mg of compound was weighed in a stoppered tube, 0.05 mL of the solvent added and the Dissolving Procedure (see above) followed. If the compound was completely dissolved, it is very soluble. If the compound was not completely dissolved, a further 0.45 mL of the solvent was added and the Dissolving Procedure (see above) followed. […] If the compound was still not completely dissolved, still further 1.0 mL of the solvent was added and the Dissolving Procedure (see above) followed. If the compound was completely dissolved, it is soluble. If the compound was still not completely dissolved, another 3.5 mL of the solvent was added and the Dissolving Procedure (see above) followed. […] If the compound was still not completely dissolved, the compound is slightly soluble or very slightly soluble. In this case, and the suspension was heated up to the boiling point (max 80° C.) under stirring to verify the solubility at high temperature. The hot solution was afterwards cooled to room temperature to observe whether the compound precipitates. If the compound at room temperature was completely dissolved, it is soluble at high temperature. [table]

[9] = Micronization in fluid energy jet mill: particle size distribution and XRPD of product; settings: for XRPD of micronized product versus starting material: after fluid energy jet milling
Excerpt: Vilanterol trifenatate form II is fed to a fluid energy jet mill at 10-100 g/h, operated with N2 at a pressure of 1 to 8 bar for the venturi and a pressure of 1 to 8 bar for the ring.

OCc1cc([C@@H](O)CNCCCCCCOCCOCc2c(Cl)cccc2Cl)ccc1O [form VIII, vilanterol trifenatate]
Hygroscopically (DVS) ([1]; listed as Form 8): Not hygroscopic
XRPD after DVS ([1]; listed as Form 8): Form 8
Stability test (25° C. 60% RH-7 d) ([2]; listed as Form 8): Strong crystallinity
DSC (onset) endo. degradation ([3]; endothermic event: degradation, listed as Form 8): endo. 191 °C
DSC (onset) endo. solvent loss + melting ([3]; listed as Form 8): endo. 136 °C solvent
DSC (onset) endo. solvent loss ([3]; listed as Form 8): endo. 66 °C solvent loss
EGA ([4]; listed as Form 8): Anisole
TGA overall weight loss ([4]; listed as Form 8): of approx.. 68% w/w
Stability test (exposed sample 16 h) ([5]; listed as Form 8): Form 8
Stability test (sealed vial 18 h) ([6]; listed as Form 8): Form 8
Stability test (60° C. 75% RH-3 d) ([7]; listed as Form 8): Partial conversion
XRPD after Grinding (XRPD after Grinding): Strong crystallinity

OCc1cc([C@@H](O)CNCCCCCCOCCOCc2c(Cl)cccc2Cl)ccc1O [form VI, vilanterol trifenatate]
Hygroscopically (DVS) ([1]; listed as Form 6): Slightly hygroscopic (Increase in mass is less than 2% and equal to or greater than 0.2%)
XRPD after DVS ([1]; listed as Form 6): Form 6
Stability test (25° C. 60% RH-7 d) ([2]; listed as Form 6): Form 1 (almost
DSC (onset) endo. solvent loss + melting ([3]; listed as Form 6): endo. 80 °C solvent loss +
DSC (onset) endo. solvent loss ([3]; listed as Form 6): endo. 65 °C solvent loss
EGA ([4]; listed as Form 6): 2-Propanol
TGA overall weight loss ([4]; listed as Form 6): One weight loss of 73% w/w
Stability test (exposed sample 16 h) ([5]; listed as Form 6): Form 12
Stability test (sealed vial 18 h) ([6]; listed as Form 6): Form 6
Stability test (60° C. 75% RH-3 d) ([7]; listed as Form 6): Amorphous

OCc1cc([C@@H](O)CNCCCCCCOCCOCc2c(Cl)cccc2Cl)ccc1O [form III, vilanterol trifenatate]
hygroscopicity classification according to the European Pharmacopoeia (EP, version 7.0) [1]: slightly hygroscopic
mass increase by dynamic vapor sorption analysis (hygroscopicity) [1]: 1.1%
Change In Mass (%) Desorption ([1]; Cycle 1, target RH 0.0%): −0.017%
Change In Mass (%) Desorption ([1]; Cycle 1, target RH 10.0%): 0.002%
Change In Mass (%) Desorption ([1]; Cycle 1, target RH 20.0%): 0.015%
Change In Mass (%) Desorption ([1]; Cycle 1, target RH 30.0%): 0.024%
Change In Mass (%) Desorption ([1]; Cycle 1, target RH 40.0%): 0.035%
Change In Mass (%) Hysteresis ([1]; Cycle 1, target RH 40.0%): 0.035%
Change In Mass (%) Sorption ([1]; Cycle 1, target RH 40.0%): 0.000%
Change In Mass (%) Desorption ([1]; Cycle 1, target RH 50.0%): 0.280%
Change In Mass (%) Hysteresis ([1]; Cycle 1, target RH 50.0%): 0.271%
Change In Mass (%) Sorption ([1]; Cycle 1, target RH 50.0%): 0.008%
Change In Mass (%) Desorption ([1]; Cycle 1, target RH 60.0%): 0.421%
Change In Mass (%) Hysteresis ([1]; Cycle 1, target RH 60.0%): 0.399%
Change In Mass (%) Sorption ([1]; Cycle 1, target RH 60.0%): 0.022%
Change In Mass (%) Desorption ([1]; Cycle 1, target RH 70.0%): 0.567%
Change In Mass (%) Hysteresis ([1]; Cycle 1, target RH 70.0%): 0.530%
Change In Mass (%) Sorption ([1]; Cycle 1, target RH 70.0%): 0.037%
Change In Mass (%) Desorption ([1]; Cycle 1, target RH 80.0%): 1.144%
Change In Mass (%) Hysteresis ([1]; Cycle 1, target RH 80.0%): 0.061%
Change In Mass (%) Sorption ([1]; Cycle 1, target RH 80.0%): 1.083%
Change In Mass (%) Desorption ([1]; Cycle 1, target RH 90.0%): 1.857%
Change In Mass (%) Sorption ([1]; Cycle 1, target RH 90.0%): 1.857%
Change In Mass (%) Sorption ([1]; Cycle 2, target RH 0.0%): −0.017%
Change In Mass (%) Sorption ([1]; Cycle 2, target RH 10.0%): −0.003%
Change In Mass (%) Sorption ([1]; Cycle 2, target RH 20.0%): 0.008%
Change In Mass (%) Sorption ([1]; Cycle 2, target RH 30.0%): 0.016%
Change In Mass (%) Sorption ([1]; Cycle 2, target RH 40.0%): 0.025%
Change In Mass (%) Sorption ([1]; Cycle 2, target RH 50.0%): 0.033%
Change In Mass (%) Sorption ([1]; Cycle 2, target RH 60.0%): 0.041%
Change In Mass (%) Sorption ([1]; Cycle 2, target RH 70.0%): 0.056%
Change In Mass (%) Sorption ([1]; Cycle 2, target RH 80.0%): 1.111%
Change In Mass (%) Sorption ([1]; Cycle 2, target RH 90.0%): 1.952%
stability / XRPD pattern after DVS analysis [1]: no significant modifications
modifications in XRPD pattern after storage (structural stability) [2]: No significant modifications in XRPD pattern
visual solubility in tetrahydrofuran (THF) ([8]; THF at 25° C.): sparingly soluble (another 3.5 mL of the solvent was added and the Dissolving Procedure (see above) followed. If the compound was completely dissolved, it is sparingly soluble.)
visual solubility in water [8]: insoluble
XRPD of micronized product versus starting material [9]: identical to the one of the starting material
particle size distribution Dv90 after micronization ([9]; fluid energy jet mill, N2): below 10 μm

OCc1cc([C@@H](O)CNCCCCCCOCCOCc2c(Cl)cccc2Cl)ccc1O [form I, 4-((1R)-2-((6-(2-((2,6-Dichlorophenyl)methoxy)ethoxy)hexyl)amino)-1-hydroxyethyl)-2-(hydroxymethyl)phenol triphenylacetate, reference compound]
hygroscopicity classification according to the European Pharmacopoeia (EP, version 7.0) [1]: non-hygroscopic
mass increase by dynamic vapor sorption analysis (hygroscopicity) [1]: 0.19%
stability / XRPD pattern after DVS analysis [1]: showed stability after DVS analysis
modifications in XRPD pattern after storage (structural stability) [2]: No significant modifications in XRPD pattern
visual solubility in 1,4-dioxane ([8]; 1,4-dioxane at 25° C.): freely soluble (a further 0.45 mL of the solvent was added and the Dissolving Procedure (see above) followed. If the compound was completely dissolved, it is freely soluble.)
solubility at 15 min ([8]; ethanol, ethanol at 25° C., read-out: visual solubility in ethanol): 10 to 33 mg/mL (≈ 20.6 to 67.8 mM)
solubility at 15 min ([8]; methanol, methanol at 25° C., read-out: visual solubility in methanol): 33 to 100 mg/mL (≈ 67.8 to 206 mM)
visual solubility in water [8]: insoluble
XRPD of micronized product versus starting material [9]: identical to that of the starting material
particle size distribution Dv50 after micronization ([9]; fluid energy jet mill, N2): 4.2 μm
particle size distribution Dv90 after micronization ([9]; fluid energy jet mill, N2): 9.6 μm

— US11414374B2, “Crystalline forms of vilanterol trifenatate and processes for their preparation” (Hovione Scientia Limited, priority 2017, dated 2022)
